Laboratory results published in PMC5008829, “Computational Analysis of the Ligand Binding Site of the Extracellular ATP Receptor, DORN1” (PLoS ONE, 2016).
pKd: −log10 of the molar value.

Assays:
Experiment in all cases: radioligand saturation binding, Sephadex G-25 gel filtration
[1] = target: T1, DORN1 WT (LEC), lectin domain only (Arabidopsis thaliana, UniProt Q9LSR8); settings: [γ-32P]ATP labelled compound; 10 mM HEPES pH 7.5, 5 mM MgCl2, on ice 30 min
T1 construct: gene LECRK19; L-type lectin domain only, recombinant from E. coli (GST fusion likely)
T1 sequence (Q9LSR8 22-257 limits assumed): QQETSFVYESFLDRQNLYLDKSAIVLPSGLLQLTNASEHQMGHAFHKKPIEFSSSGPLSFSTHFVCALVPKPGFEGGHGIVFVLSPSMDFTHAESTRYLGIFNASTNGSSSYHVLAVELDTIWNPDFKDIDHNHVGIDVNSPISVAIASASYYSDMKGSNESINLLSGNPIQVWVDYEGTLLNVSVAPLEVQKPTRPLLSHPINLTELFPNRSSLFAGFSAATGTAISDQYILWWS
Source text: radioligand saturation binding, Sephadex G-25 gel filtration on DORN1 WT (LEC), lectin domain only | WT (LEC): lectin domain only, WT (ECD): extracellular domain

[2] = target: T2, DORN1 WT (ECD), extracellular domain (Arabidopsis thaliana, UniProt Q9LSR8, DEL116-118)
T2 construct: gene LECRK19; extracellular domain, signal peptide removed, pGEX-5X N-terminal GST fusion, E. coli BL21-AI, glutathione Sepharose; primers encode QETSFVY...APHKKVST
T2 sequence (Q9LSR8 with tags, fused parts or gaps DEL116-118): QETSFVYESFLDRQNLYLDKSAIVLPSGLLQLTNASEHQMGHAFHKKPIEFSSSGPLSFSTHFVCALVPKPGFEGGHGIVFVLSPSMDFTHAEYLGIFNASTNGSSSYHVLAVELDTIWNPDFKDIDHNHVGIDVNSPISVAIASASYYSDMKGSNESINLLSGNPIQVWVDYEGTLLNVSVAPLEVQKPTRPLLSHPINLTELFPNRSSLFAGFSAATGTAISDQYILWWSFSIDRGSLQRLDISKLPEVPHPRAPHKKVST

[3] = target: T3, DORN1 WT (ECD), extracellular domain (Arabidopsis thaliana, UniProt Q9LSR8)
T3 construct: gene LECRK19; extracellular domain, signal peptide removed, pGEX-5X N-terminal GST fusion, E. coli BL21-AI, glutathione Sepharose; primers encode QETSFVY...APHKKVST
T3 sequence (Q9LSR8 23-288): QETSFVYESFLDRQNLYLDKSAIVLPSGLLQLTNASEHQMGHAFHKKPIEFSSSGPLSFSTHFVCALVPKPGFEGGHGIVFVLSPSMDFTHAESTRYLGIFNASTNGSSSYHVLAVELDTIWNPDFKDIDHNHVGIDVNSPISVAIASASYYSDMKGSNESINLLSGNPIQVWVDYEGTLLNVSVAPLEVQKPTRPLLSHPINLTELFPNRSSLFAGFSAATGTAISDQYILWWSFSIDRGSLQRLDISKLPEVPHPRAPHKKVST

[4] = target: T4, DORN1 WT (ECD), extracellular domain (Arabidopsis thaliana, UniProt Q9LSR8, DEL141-146)
T4 construct: gene LECRK19; extracellular domain, signal peptide removed, pGEX-5X N-terminal GST fusion, E. coli BL21-AI, glutathione Sepharose; primers encode QETSFVY...APHKKVST
T4 sequence (Q9LSR8 with tags, fused parts or gaps DEL141-146): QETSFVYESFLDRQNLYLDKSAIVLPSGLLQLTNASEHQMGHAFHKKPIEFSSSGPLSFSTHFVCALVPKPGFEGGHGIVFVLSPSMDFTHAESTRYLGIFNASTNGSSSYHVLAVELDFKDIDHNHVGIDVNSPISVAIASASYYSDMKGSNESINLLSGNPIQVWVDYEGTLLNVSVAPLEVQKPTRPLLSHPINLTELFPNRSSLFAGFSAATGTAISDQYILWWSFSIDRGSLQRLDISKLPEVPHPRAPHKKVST

pKd [1]: 7.28 | pKd [2]: 6.27 | pKd [3]: 7.42 | pKd [4]: 6.72
SMILES: Nc1ncnc2c1ncn2[C@@H]1O[C@H](COP(=O)(O)OP(=O)(O)OP(=O)(O)O)[C@@H](O)[C@H]1O [ATP]
